# Assay results published in US20150342190A1, “METHODS FOR LEVERAGING HORMESIS IN PLANT BREEDING AND PLANTS WITH ENHANCED HORMESIS EFFECTS” (PIONEER HI BRED INTERNATIONAL INC, priority 2014, published 2015).
# Where two headings read alike, the source gives them in different places.
# How the values were obtained:
# Type in all cases: in vivo
# [1] = system: inbred lines without the glyphosate tolerance trait (PH1BVW2, PH1PMB1, and PHSZB1); assay: Glyphosate efficacy check on non-tolerant maize inbreds (Example 5); settings: both glyphosate treatments (1× and 2× of the recommended dosage), spray
# Experimental: (§1) Seeds from four glyphosate tolerant maize inbred lines (PH1BVW2, PH1PMB1, PHSZB1 and PH19081) were washed in 0.615% NaClO solution for 5 minutes and rinsed with deionized water. They were germinated for one week and then transferred into individual 10″ Deepot tubes (1 seedling/tube), either with foam plugs to suspend the plants in the tubes (Experiments 1 &2) or filled with Turface (Experiments 3 & 4). These tubes were placed into hydroponic growing tanks (100 tubes/tank) with a modified Hoagland's media. At the end of the 2nd week after planting, plants from selected tanks were sprayed with glyphosate solutions equivalent to 1× or 2× of the recommended dosage (1× dosage: 1 quart of liquid Round-Up WeatherMax® per acre, or 21.75 ul/ft2). Separately, three inbred lines without the glyphosate tolerance trait (PH1BVW2, PH1PMB1, and PHSZB1) were treated with the same dosages of glyphosate to confirm the efficacy of the herbicide. The inbred lines without the glyphosate tolerance trait were killed by both glyphosate treatments, as expected. Four weeks after germination, plants were harvested and shoot fresh weight was recorded.
# [2] = system: glyphosate tolerant maize inbred line PH19081; assay: Glyphosate treatment of hydroponically grown maize inbreds, shoot fresh weight (Example 5); settings: seedling fresh weight
# Experimental: as §1
# [3] = system: glyphosate tolerant maize inbred line PH1BVW2; assay: as above; settings: seedling fresh weight
# Experimental: as §1
# [4] = system: soybean line 93M94 (RR + Als1)
# Experimental: (§2) The field trial was conducted as a 7×4 factorial experiment (7 herbicide regimes×4 genotypes) in a split block design with main blocks as herbicide treatments. The trial was conducted at 3 different environments (separate field locations) in Iowa during the summer of 2014. Herbicide control treatment #1 (no sulfonylurea) was replicated 12 times within each of the 3 environments (36 reps total). Herbicide treatments 2 through 7 (Table 7) were replicated 6 times at each of the 3 environments (18 reps total). The additional replication of control treatment #1 was done to increase precision of the treatment mean to which all other treatments (#2 through 7) would be compared.
# (§3) It is important to note that both tribenuron and rimsulfuron are more toxic to wild type soybeans than other SU's that could also be tested. But treatment with these specific SU's and application rates was intended to push the limits of SU tolerance so that any response differences between lines could be exposed. The 4 genotypes (Table 6) were randomized within each of the main blocks to facilitate post-emergence application of the various herbicide treatments (Table 7). Each experimental unit was a 2-row soybean plot 15 feet long with 30 inch row spacing and a planting density of 8 seeds per foot of row. Planting was done in mid-May and harvest was done in early October at all 3 environments in 2014.
# (§4) Several weeks after planting, the entire field was sprayed post-emergence at the V2 (2-leaf) stage with Roundup PowerMax® at 44 oz/acre (30 oz/acre ai glyphosate) with the addition of ammonium sulfate at a rate of 8 lb per 100 gallons as according to label. Several days later at the V3 (3-leaf) stage, herbicide treatments 2 through 7 (Table 7) were applied according to label directions including the addition of ammonium sulfate at a rate of 8 lb per 100 gallons of spray solution. Randomly embedded control plots of a given soybean genotype facilitated side-by-side visual estimates of herbicide injury. Plots were given visual injury ratings at 14 days after herbicide treatment (14 DAT). Visual injury estimates were assigned to reflect the crop response (a combination of reduced vigor and/or chlorosis) of sprayed rows in relation to the randomly embedded control plots. Injury scores were based on a 0-100% scale, with 0 indicating no crop response and 100 indicating all plants killed.
# (§5) At maturity, the seed from each plot was harvested with weight and moisture recorded. Weights were then adjusted to 13% moisture content and reported in units of bushels per acre (bu/a). Yields were also converted to % of control on a “per line” and “per environment” basis. For example, the average yield of SU-treated 93Y92BC3 plots were compared to the average yield of 93Y92BC3 control plots within a given environment and then averaged across environments.
# [5] = system: soybean line 94Y02 (RR + Als1)
# Experimental: as §2, §3, §4, §5
# [6] = system: soybean line 93Y92BC3 (RR + Als1 + Als2); assay: 2014 field hormesis trial (Example 4)
# Experimental: as §2, §3, §4, §5
# [7] = system: soybean line 93Y82BC3 (RR + Als1 + Als2); assay: 2014 field hormesis trial (Example 4)
# Experimental: as §2, §3, §4, §5
# [8] = system: soybean line BC44883300 (ALS2); assay: Field yield trial with herbicide treatments (Example 2); settings: full herbicide concentration (Tribenuron 1.0X) at V3
# Experimental: (§6) Table 2 describes the soy lines used and whether ALS1, ALS2, or both herbicide resistant genes were present in each.
# (§7) Each of the lines in Table 2 was grown at a density of 150,000 seeds/acre (˜8 seeds per foot of row) in two 30 inch rows. Each line was divided into four groups, and each group of each line was subjected to one of the four herbicide treatments listed in Table 3.
# (§8) Group 1 of each line was the control group that received no herbicide treatment. Groups 2, 3, and 4 of each line were treated with different concentrations of herbicide corresponding to approximately ¼ strength, ½ strength, and full strength (needed for weed control) respectively of the recommended concentrations of the herbicide DuPont™ Express® w/TotalSol®, which includes Tribenuron, a sulfonylurea herbicide. The herbicide treatment spray solution was prepared according to the label instructions with a non-ionic surfactant and an adjuvant (ammonium sulfate). The herbicide was applied to Groups 2, 3, and 4 during the V3 growth phase, the plants were grown to maturity, and yield measurements were made. Each genotype×herbicide treatment group was replicated six times.
# [9] = system: soybean line BC44883270 (ALS1 + ALS2); assay: as above; settings: full herbicide concentration (Tribenuron 1.0X) at V3
# Experimental: as §6, §7, §8
# [10] = system: soybean line BC44883269 (ALS2); assay: as above; settings: full herbicide concentration (Tribenuron 1.0X) at V3
# Experimental: as §6, §7, §8
# [11] = system: soybean line BC44883336 (ALS1 + ALS2); assay: as above; settings: full herbicide concentration (Tribenuron 1.0X) at V3
# Experimental: as §6, §7, §8
# [12] = system: soybean lines of Table 2; assay: Field yield trial with herbicide treatments (Example 2), all lines; settings: 1/4 concentration herbicide application (Tribenuron 0.25X) at V3
# Experimental: as §6, §7, §8
# [13] = 0.5x rate at V3, 3 environments
# [14] = herbicide treatments 2 and 3 (tribenuron 0.5x and 1x), 14 DAT
smiles,measurement,setting,value
O=C(O)CNCP(=O)(O)O [glyphosate],efficacy of the herbicide on non-tolerant lines,[1],killed
same,hormesis effect upon application of herbicide,[2],positive hormesis effect
same,hormesis effect upon application of herbicide,[3],positive hormesis effect
COc1nc(C)nc(N(C)C(=O)NS(=O)(=O)c2ccccc2C(=O)O)n1 [tribenuron],Yield as % of control,[4]; 0.5x rate at V3,98%
same,Yield effect,[4]; 0.5x rate at V3,neutral
same,Yield (bu/a),[4]; [13],47.5 bu/a
same,Visual injury 14 DAT,"[4]; 0.5x rate at V3, 14 DAT",10%
same,Yield as % of control,[4]; 1x rate at V3,101%
same,Yield effect,[4]; 1x rate at V3,neutral
same,Yield (bu/a),"[4]; 1x rate at V3, 3 environments",48.9 bu/a
same,Visual injury 14 DAT,"[4]; 1x rate at V3, 14 DAT",18%
same,Yield as % of control,[4]; 2x rate at V3,87%
same,Yield effect,[4]; 2x rate at V3,negative
same,Yield (bu/a),"[4]; 2x rate at V3, 3 environments",41.9 bu/a
same,Visual injury 14 DAT,"[4]; 2x rate at V3, 14 DAT",39%
same,Yield as % of control,[5]; 0.5x rate at V3,99%
same,Yield effect,[5]; 0.5x rate at V3,neutral
same,Yield (bu/a),[5]; [13],58.8 bu/a
same,Visual injury 14 DAT,"[5]; 0.5x rate at V3, 14 DAT",9%
same,Yield as % of control,[5]; 1x rate at V3,98%
same,Yield effect,[5]; 1x rate at V3,neutral
same,Yield (bu/a),"[5]; 1x rate at V3, 3 environments",58.2 bu/a
same,Visual injury 14 DAT,"[5]; 1x rate at V3, 14 DAT",19%
same,Yield as % of control,[5]; 2x rate at V3,82%
same,Yield effect,[5]; 2x rate at V3,negative
same,Yield (bu/a),"[5]; 2x rate at V3, 3 environments",48.6 bu/a
same,Visual injury 14 DAT,"[5]; 2x rate at V3, 14 DAT",39%
same,Yield as % of control,[6]; 0.5x rate at V3,106%
same,Yield effect,[6]; 0.5x rate at V3,Positive
same,Yield (bu/a),[6]; [13],59.4 bu/a
same,Visual injury 14 DAT,"[6]; 0.5x rate at V3, 14 DAT",2%
same,Yield as % of control,[6]; 1x rate at V3,104%
same,Yield effect,[6]; 1x rate at V3,Positive
same,Yield (bu/a),"[6]; 1x rate at V3, 3 environments",58.0 bu/a
same,Visual injury 14 DAT,"[6]; 1x rate at V3, 14 DAT",5%
same,Yield as % of control,[6]; 2x rate at V3,108%
same,Yield effect,[6]; 2x rate at V3,Positive
same,Yield (bu/a),"[6]; 2x rate at V3, 3 environments",60.0 bu/a
same,Visual injury 14 DAT,"[6]; 2x rate at V3, 14 DAT",14%
same,average visual injury,[6]; [14],≤ 6%
same,Yield as % of control,[7]; 0.5x rate at V3,101%
same,Yield effect,[7]; 0.5x rate at V3,neutral
same,Yield (bu/a),[7]; [13],61.1 bu/a
same,Visual injury 14 DAT,"[7]; 0.5x rate at V3, 14 DAT",3%
same,Yield as % of control,[7]; 1x rate at V3,101%
same,Yield effect,[7]; 1x rate at V3,neutral
same,Yield (bu/a),"[7]; 1x rate at V3, 3 environments",61.3 bu/a
same,Visual injury 14 DAT,"[7]; 1x rate at V3, 14 DAT",6%
same,Yield as % of control,[7]; 2x rate at V3,102%
same,Yield effect,[7]; 2x rate at V3,neutral
same,Yield (bu/a),"[7]; 2x rate at V3, 3 environments",61.4 bu/a
same,Visual injury 14 DAT,"[7]; 2x rate at V3, 14 DAT",16%
same,average visual injury,[7]; [14],≤ 6%
same,yield decrease,[8],~19%
same,yield improvement over the control,[9],about 4.5%
same,yield decrease,[10],about 32%
same,yield improvement over the control,[11],~13%
same,yield relative to the control (hormesis effect),[12],relative yield increase
CCS(=O)(=O)c1cccnc1S(=O)(=O)NC(=O)Nc1nc(OC)cc(OC)n1 [rimsulfuron],Yield as % of control,[4]; 0.5x rate at V3,76%
same,Yield effect,[4]; 0.5x rate at V3,negative
same,Yield (bu/a),[4]; [13],36.7 bu/a
same,Yield as % of control,[4]; 1x rate at V3,51%
same,Yield effect,[4]; 1x rate at V3,negative
same,Yield (bu/a),"[4]; 1x rate at V3, 3 environments",24.7 bu/a
same,Yield as % of control,[4]; 2x rate at V3,41%
same,Yield effect,[4]; 2x rate at V3,negative
same,Yield (bu/a),"[4]; 2x rate at V3, 3 environments",19.6 bu/a
same,Yield as % of control,[5]; 0.5x rate at V3,54%
same,Yield effect,[5]; 0.5x rate at V3,negative
same,Yield (bu/a),[5]; [13],31.7 bu/a
same,Yield as % of control,[5]; 1x rate at V3,33%
same,Yield effect,[5]; 1x rate at V3,negative
same,Yield (bu/a),"[5]; 1x rate at V3, 3 environments",19.5 bu/a
same,Yield as % of control,[5]; 2x rate at V3,21%
same,Yield effect,[5]; 2x rate at V3,negative
same,Yield (bu/a),"[5]; 2x rate at V3, 3 environments",12.2 bu/a
same,Yield as % of control,[6]; 0.5x rate at V3,107%
same,Yield effect,[6]; 0.5x rate at V3,Positive
same,Yield (bu/a),[6]; [13],59.8 bu/a
same,Yield as % of control,[6]; 1x rate at V3,108%
same,Yield effect,[6]; 1x rate at V3,Positive
same,Yield (bu/a),"[6]; 1x rate at V3, 3 environments",60.5 bu/a
same,Yield as % of control,[6]; 2x rate at V3,89%
same,Yield effect,[6]; 2x rate at V3,negative
same,Yield (bu/a),"[6]; 2x rate at V3, 3 environments",49.9 bu/a
same,Yield as % of control,[7]; 0.5x rate at V3,99%
same,Yield effect,[7]; 0.5x rate at V3,neutral
same,Yield (bu/a),[7]; [13],60.1 bu/a
same,Yield as % of control,[7]; 1x rate at V3,93%
same,Yield effect,[7]; 1x rate at V3,negative
same,Yield (bu/a),"[7]; 1x rate at V3, 3 environments",56.2 bu/a
same,Yield as % of control,[7]; 2x rate at V3,81%
same,Yield effect,[7]; 2x rate at V3,negative
same,Yield (bu/a),"[7]; 2x rate at V3, 3 environments",48.7 bu/a
